Measurements from patent US20200033346A1, “DIAGNOSTIC AND THERAPEUTIC METHODS FOR KRAS POSITIVE CANCERS” (The Board of Trustees of the Leland Stanford Junior …, priority 2017, published 2020).

Experiments:
BCL2-induced lymphoma = test: Tumor growth in mice with BCL2-induced lymphoma; assay type: in vivo, mouse; conditions: RAS inactivation by FTS together with BCL2 inactivation by DOX; FIG. 21
Text: Inactivation of both BCL2 and Ras inhibits tumor growth more effectively than either oncogene alone: mice with BCL2-induced lymphoma. Plots of tumor area over time in mice cohorts: untreated (UnTx), with BCL2 inactivated (BCL2 off), Ras inactivated (Ras off, or both BCL2 and Ras inactivated (BCL2off,Ras off).

ERK1/2 phosphorylation = test: NIA analysis of ERK isoforms in FNAs from transgenic lymphoma; assay type: in vivo, mouse; conditions: Day 4 of FTS treatment, FIG. 22
Description: (§1) Nanoimmunoassay (NIA). NIA was performed using the Nanopro 1000 (Protein Simple) to detect the phosphorylation states of ERK1 and ERK2 in lysates generated from lung tumor tissue. NIA is a highly sensitive capillary-based isoelectric focusing method that uses antibody detection to quantify protein isoforms as well as characterize post-translational protein modifications such as phosphorylation. The final protein concentration loaded into each capillary of the Nanopro 1000 was 0.1 μg/μL. The primary rabbit antibody for ERK1/2 (Millipore) was diluted 1:300 and the primary mouse antibody for the loading control, Hsp70 (Santa Cruz Biosciences), was diluted 1:500. The anti-mouse and anti-rabbit secondary antibodies, conjugated to horse radish peroxidase, were diluted 1:100. Chemiluminescence signal was recorded following the addition of luminol and peroxide detection reagents. Analysis of NIA data was performed in Compass software (Protein Simple).
Tumors were sampled by fine needle aspirate prior to treatment (UnTx), and […] after 1-8 days of treatment with FTS.
Comparison with dox is shown. Mice were either treated with FTS (BC2FTS) or BCL2 inactivation (BCL2Dox). Tumors were sampled by fine needle aspirate prior to treatment (UnTx), and […] after 1-8 days of treatment with FTS.

[1] = test system: FASN and SCD gene expression; test: Real-time PCR of FASN and SCD mRNA in human lung cancer cell lines after inhibitor treatment; assay type: cell-based; conditions: qPCR
Description: Cell culture. The human non-small cell lung carcinoma cell lines, A549 and H1299, were used for in vitro experiments. A549 cells were maintained in Dulbecco's Modified Eagle Medium (DMEM) supplemented with 10% fetal bovine serum (FBS), 1% L-glutamine, 1% sodium pyruvate, 1% nonessential amino acids, and Antibiotic-Antimycotic. H1299 cells were maintained in RPMI 1640 medium supplemented with 10% FBS, 50 μM β-mercaptoethanol, and Antibiotic-Antimycotic. Trypsin-EDTA was used to passage both A549 and H1299 cells. All cell culture reagents were purchased from Gibco® (Thermo Fisher Scientific Inc.). Small molecule inhibitors. […] FTS is a synthetic famesylcysteine mimetic which interferes with the anchoring of KRAS to the plasma membrane. […] Various levels of these drugs were administered to cells in culture over a time course in order to assess dose-response relationships. RNA extraction and cDNA synthesis. Total RNA was isolated from cells and lung tissue using the QIAGEN RNeasy Mini kit. RNA quality and concentration were assessed by the NanoDrop® spectrophotometer. The RNA was reverse transcribed into cDNA using the SuperScript® III First-Strand Synthesis System (Invitrogen). […] Amplicons were detected by using SYBR® Green I dye as fluorophore. […] For each gene, a threshold cycle (Ct) number, which represents the number of cycles required to reach the threshold fluorescence, was determined. […]

ERK1/2 phospho-isoforms = test: NIA analysis of ERK isoforms in tumor FNAs of mice with MYC-induced lymphoma; assay type: in vivo, mouse; conditions: FIG. 18
Description: as §1
Mice with MYC-induced lymphoma were treated with FTS. Tumors from mouse untreated or after 4 days of treatment were sampled by fine needle aspirate. FNAs were flash frozen and batch analyzed. NIA was used to analyze ERK isoforms using NIA.

FASN = FASN (Homo sapiens, UniProt P49327); conditions: background description; cited from earlier work
FASN, sequence (P49327 whole entry, species assumed, canonical isoform): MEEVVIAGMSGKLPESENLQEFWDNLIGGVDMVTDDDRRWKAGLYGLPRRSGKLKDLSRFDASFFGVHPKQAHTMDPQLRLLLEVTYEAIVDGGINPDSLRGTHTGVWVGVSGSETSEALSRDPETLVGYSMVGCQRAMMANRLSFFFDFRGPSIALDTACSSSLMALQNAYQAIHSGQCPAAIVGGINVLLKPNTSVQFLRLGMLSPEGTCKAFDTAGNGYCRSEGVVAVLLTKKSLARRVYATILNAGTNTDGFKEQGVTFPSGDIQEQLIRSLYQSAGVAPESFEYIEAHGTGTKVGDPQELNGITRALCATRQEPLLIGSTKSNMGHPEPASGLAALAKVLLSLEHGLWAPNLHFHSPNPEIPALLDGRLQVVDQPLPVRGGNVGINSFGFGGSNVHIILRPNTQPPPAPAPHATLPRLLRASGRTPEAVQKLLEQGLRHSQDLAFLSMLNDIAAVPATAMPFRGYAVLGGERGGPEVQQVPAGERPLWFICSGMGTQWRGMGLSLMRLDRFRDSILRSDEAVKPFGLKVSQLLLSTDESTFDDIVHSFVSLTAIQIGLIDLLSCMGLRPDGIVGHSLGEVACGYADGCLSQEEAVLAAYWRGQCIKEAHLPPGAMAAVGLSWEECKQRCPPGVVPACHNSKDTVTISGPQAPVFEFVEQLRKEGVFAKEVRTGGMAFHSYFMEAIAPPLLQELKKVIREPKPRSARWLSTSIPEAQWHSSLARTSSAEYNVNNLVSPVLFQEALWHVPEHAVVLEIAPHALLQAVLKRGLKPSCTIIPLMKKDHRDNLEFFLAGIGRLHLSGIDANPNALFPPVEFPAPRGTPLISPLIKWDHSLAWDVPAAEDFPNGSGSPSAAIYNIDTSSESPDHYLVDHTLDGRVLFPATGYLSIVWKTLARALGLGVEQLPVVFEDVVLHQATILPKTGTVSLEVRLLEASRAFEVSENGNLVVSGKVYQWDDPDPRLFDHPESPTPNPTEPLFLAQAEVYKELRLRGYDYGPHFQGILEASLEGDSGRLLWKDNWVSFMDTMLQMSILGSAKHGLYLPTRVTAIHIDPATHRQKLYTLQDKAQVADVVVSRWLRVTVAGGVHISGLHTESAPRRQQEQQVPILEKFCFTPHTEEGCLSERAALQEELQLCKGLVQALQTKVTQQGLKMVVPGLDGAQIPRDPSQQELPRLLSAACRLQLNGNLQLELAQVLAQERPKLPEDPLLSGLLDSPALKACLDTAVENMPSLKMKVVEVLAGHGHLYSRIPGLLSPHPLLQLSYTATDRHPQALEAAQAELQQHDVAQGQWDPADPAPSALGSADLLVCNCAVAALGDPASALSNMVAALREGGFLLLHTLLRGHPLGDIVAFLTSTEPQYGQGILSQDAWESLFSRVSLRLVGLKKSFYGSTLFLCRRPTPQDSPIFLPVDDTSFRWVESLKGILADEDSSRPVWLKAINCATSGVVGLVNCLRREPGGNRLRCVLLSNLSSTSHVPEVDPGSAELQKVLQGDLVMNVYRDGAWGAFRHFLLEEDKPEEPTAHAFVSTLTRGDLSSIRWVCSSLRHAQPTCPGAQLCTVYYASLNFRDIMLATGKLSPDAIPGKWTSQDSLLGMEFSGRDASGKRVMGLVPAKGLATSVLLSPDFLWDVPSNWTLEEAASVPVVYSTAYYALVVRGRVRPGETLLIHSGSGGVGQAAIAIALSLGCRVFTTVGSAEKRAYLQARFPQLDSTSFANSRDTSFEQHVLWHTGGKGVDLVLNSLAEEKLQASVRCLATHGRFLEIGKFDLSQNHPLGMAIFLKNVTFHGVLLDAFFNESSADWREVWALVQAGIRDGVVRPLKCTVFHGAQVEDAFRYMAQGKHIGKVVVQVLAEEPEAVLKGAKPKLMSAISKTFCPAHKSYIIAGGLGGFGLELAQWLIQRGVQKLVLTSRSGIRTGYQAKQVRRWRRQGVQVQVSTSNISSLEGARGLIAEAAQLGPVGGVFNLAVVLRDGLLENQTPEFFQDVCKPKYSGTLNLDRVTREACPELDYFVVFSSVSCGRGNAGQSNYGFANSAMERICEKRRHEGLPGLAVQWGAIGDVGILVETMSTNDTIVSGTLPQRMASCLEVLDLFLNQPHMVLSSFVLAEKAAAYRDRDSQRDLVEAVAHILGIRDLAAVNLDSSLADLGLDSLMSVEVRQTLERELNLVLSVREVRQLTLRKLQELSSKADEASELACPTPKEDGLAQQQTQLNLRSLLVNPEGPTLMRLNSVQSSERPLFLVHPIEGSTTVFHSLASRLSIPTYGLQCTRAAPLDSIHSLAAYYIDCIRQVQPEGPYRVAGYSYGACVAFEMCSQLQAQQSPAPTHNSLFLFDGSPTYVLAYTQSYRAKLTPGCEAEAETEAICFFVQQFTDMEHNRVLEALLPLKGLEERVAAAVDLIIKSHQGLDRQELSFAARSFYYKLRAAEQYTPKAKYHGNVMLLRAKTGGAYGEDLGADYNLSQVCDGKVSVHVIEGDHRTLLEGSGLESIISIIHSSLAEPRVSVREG

Erk pathway = test: NIA of ERK isoforms in head and neck squamous cell carcinoma before and after rigosertib; assay type: in vivo, human; conditions: one head and neck cancer patient; pre- vs post-treatment; FIG. 32
Description: Patients receive 2 cycles of 2 weeks of treatment with 1 week off regimen. For Cycle 1, Day 14 only, 5 patients with HNSCC will undergo biopsy or FNA for nano-proteomic profiling of total- and phospho-proteins in pathways inhibited by rigosertib, ERK and loading control. For Cycle 1 Day 14 and Cycle 2 Day 14, pharmacokinetic blood analyses are performed. […] A patient with head and neck cancer treated on clinical trial of rigosertib had tumor sampled before (pre-treatment) and after (post-treatment) treatment. NIA was used to measure ERK isforms.

A549 = test: Cell proliferation upon FASN inhibition (PI assay, hemocytometer cell counting), A549; assay type: cell-based, human; conditions: cerulenin 1-10 μg/mL, FIG. 6A
Text: (§2) Cell culture. The human non-small cell lung carcinoma cell lines, A549 and H1299, were used for in vitro experiments. A549 cells were maintained in Dulbecco's Modified Eagle Medium (DMEM) supplemented with 10% fetal bovine serum (FBS), 1% L-glutamine, 1% sodium pyruvate, 1% nonessential amino acids, and Antibiotic-Antimycotic. […] Trypsin-EDTA was used to passage both A549 and H1299 cells. All cell culture reagents were purchased from Gibco® (Thermo Fisher Scientific Inc.).
(§3) Small molecule inhibitors. […] FTS is a synthetic famesylcysteine mimetic which interferes with the anchoring of KRAS to the plasma membrane. […] Various levels of these drugs were administered to cells in culture over a time course in order to assess dose-response relationships.
(§4) Cell counting. A volume of cells was removed from culture medium and mixed with an equal volume of 0.4% Trypan blue stain. Then 10 μL was taken out and placed into a hemocytometer for cell counting. Viable cell counts were used as a measure of cell proliferation.

H1299 = test: Cell proliferation upon FASN inhibition (PI assay, hemocytometer cell counting), H1299; assay type: cell-based, human; conditions: cerulenin 1-10 μg/mL, FIG. 6B
Text: as §2, §3, §4

tumor burden = test: Tumor burden in patients on clinical trial of atorvastatin; assay type: in vivo, human; conditions: eight days of treatment
MEK1 phospho-isoforms = test: NIA of MEK isoforms in NHL patients before and after atorvastatin; assay type: in vivo, human
Description: Nine patients were treated on clinical trial of HMG co-A reductase inhibitor atorvastatin. NIA was used to measure changes in MEK isoforms before (day 1) and after eight days of treatment.
Nine patients were treated on clinical trial of HMG co-A reductase inhibitor atorvastatin. NIA was used to measure changes in MEK isoforms before (day 1) and after 8 days of treatment.

Q: What does the source list for CC(C)=CCC/C(C)=C/CC/C(C)=C/CSc1ccccc1C(=O)O [FTS, S-trans,trans-farnesylthiosalicylic acid]?
A: Tumor growth inhibition (BCL2-induced lymphoma): inhibits tumor growth more effectively than inactivating either oncogene alone; Decrease of ERK1/2 phosphorylation (ERK1/2 phosphorylation): 35%; Gene expression of FASN and SCD upon KRAS inhibition ([1]; human lung cancer cell line, FTS at 5-20 ng/mL, FIG. 5B): decreased the gene expression of FASN and SCD in a dose-dependent manner; Total ERK1/2 level (ERK1/2 phospho-isoforms; FNA after 4 days of treatment): did not change; Phospho-ERK isoforms (ERK1/2 phospho-isoforms; FNA on day 4 of treatment): all phospho-ERK isoforms decreased

Q: Which FASN inhibitory potency (FASN) does the source give for C=C1C(=O)OC(CCCCCCCC)C1C(=O)O (centres unmarked) [C75] here?
A: weak, irreversible inhibitor

Q: Which FASN inhibitory potency (FASN) does the source give for Cc1ccnc(NS(=O)(=O)c2ccc(NC(=O)Nc3ccc(S(=O)(=O)Nc4nccc(C)n4)cc3)cc2)n1 [GSK837149A] here?
A: low, nanomolar

Q: Which “Erk pathway activity (ERK isoforms by NIA)” value (Erk pathway) does the source give for COc1cc(OC)c(/C=C/S(=O)(=O)Cc2ccc(OC)c(NCC(=O)O)c2)c(OC)c1 [Rigosertib] here?
A: decreases Erk pathway

Q: With O=C(Nc1ccc2[nH]nc(-c3ccncc3)c2c1)[C@@H]1CCN(CC(=O)N2CCN(c3ccc(-c4ncccn4)cc3)CC2)C1 [SCH772984] as the molecule, how does the “Relative mRNA expression of FASN and SCD upon ERK inhibition” value ([1]; A549 and H1299 cells, SCH772984 at 125 ng/mL, FIG. 5A) read?
A: suppression of FASN and SCD

Q: For C/C=C/C/C=C/CCC(=O)[C@H]1O[C@H]1C(N)=O [Cerulenin], which Cell proliferation (A549) is on record?
A: decreased proliferation

Q: What about the Cell proliferation (H1299) of the same molecule?
A: decreased proliferation

Q: For CC(C)c1c(C(=O)Nc2ccccc2)c(-c2ccccc2)c(-c2ccc(F)cc2)n1CC[C@@H](O)C[C@@H](O)CC(=O)O [atorvastatin], which Tumor burden (tumor burden; patient A) is on record?
A: tumor burden decreased

Q: And the Tumor burden (tumor burden; patient B)?
A: no change in tumor burden

Q: And the “Patients with significant changes in di-phospho-MEK1” value (MEK1 phospho-isoforms; day 1 vs after 8 days of treatment, FIG. 27)?
A: four of nine

Q: What about the “Patients with significant changes in tri-phospho-MEK1” value (MEK1 phospho-isoforms; day 1 vs after eight days of treatment, FIG. 26) of the same molecule?
A: four of nine

Q: And the “Patients with significant changes in Mono-phospho-MEK1” value (MEK1 phospho-isoforms; day 1 vs after eight days of treatment, FIG. 28)?
A: one of nine

Q: For epigallocatechin-3-gallate [EGCG], which FASN inhibitory potency (FASN) is on record?
A: high micromolar
